# In patent US20250152605A1, “METHOD AND DRUG FOR TREATING NEURONAL CEROID LIPOFUSCINOSIS” (priority 2021, published 2025):
# Tests used:
# [1] = test system: CLN3^Δex7/8 human neural stem cells; test: Transcriptome sequencing (RNA-seq) of human neural stem cells; type: cell-based; conditions: 6 μM, 6 hours
# Method: In order to detect the effect of Compound G on treated cells, transcriptome sequencing was performed on neural stem cells treated with Compound G, with specific steps as follows: CLN3^Δex7/8 human neural stem cells were seeded into 2% Matrigel-coated 6-well cell plates to a cell density of 80%; fresh cell culture medium containing 6 μM Compound G or an equal volume of DMSO was added, and each treatment condition for two biological replicates; the neural stem cells were incubated in a 37° C. cell culture incubator for 6 hours; the cell culture medium was aspirated, following by washing once with dPBS, and then intracellular RNA was extracted by Qiagen RNeazy Mini Plus Kit; the extracted RNA was sent to ANNOROAD for RNA quality testing first. The purity of RNA was tested using a Nanophotometer spectrophotometer; the concentration of RNA was tested using a Qubit 3.0 Flurometer; the integrity of the RNA was tested using the Aligent 2100 RNA Nano 6000 Assay kit; 2 μg of RNA was taken from each qualified sample for library construction and quantified using Qubit 3.0 Flurometer.
# After diluting the library-building samples to 1 ng/μL, the Aligent 2100 RNA Nano 6000 Assay kit and qPCR were used for quality detection; Illumina's Hiseq PE Cluster kit was used for clustering, and the Hiseq 2500 sequencing platform was used for paired-end sequencing to obtain 150 bp paired-end sequencing reads; FastQC software was used to evaluate the quality of the raw data obtained from sequencing, then TrimGalore was used to remove adapter sequences and low-quality sequences, and filtered data was obtained for subsequent analysis.
# Comparation between filtered data and human reference genome hg38 was carried with HISAT2, resulting in Bam file, and the number of counts aligned to each gene was counted by FeatureCount, with gtf (GRCh38.92) file provided by Ensembl as annotation. Ensembl IDs were converted to gene names by BiomaRt R package. The genes with fold change>2 and corrected p<0.05 were screened as differential genes, through differential genes expression analysis with DESeq2 software.
# In order to explore the mechanism of Compound G in human neural stem cells, transcriptome sequencing experiments were conducted on wild-type human neural stem cells, CLN3^Δex7/8 human neural stem cells and CLN3^Δex7/8 human neural stem cells after treated with Compound G for 6 hours, and differentially expressed genes were analyzed. […] CLN3^Δex7/8 human neural stem cells treated and untreated with Compound G were clustered together (FIG. 29(b, c)). […] With regard to the RNA sequencing results, the effects of Compound G on the transcription level of TFEB, autophagy-related genes and lysosomal genes were also analyzed.
# [2] = test system: CLN3^Δex7/8 human neurons; test: qRT-PCR of autophagy-related and lysosomal genes in human neurons; type: cell-based; conditions: 6 hours
# Method: The cells in the cell-culture dish were collected, extracted using AxyPrep Total RNA Mini Prep Kit or Qiagen AxyPrep Total RNA Mini Prep Kit, and the extracted RNA concentration is measured using Nanodrop; the extracted mRNA was reverse transcribed into cDNA by Transgen's EasyScript® One-Step gDNA Removal and cDNA Synthesis SuperMix and the primers used for reverse transcription were Oligo dT primers; the completion of reverse transcription followed by qRT-PCR reaction through PerfectStart™ Green qPCR SuperMix to detect the expression of the target gene; the qRT-PCR reaction was performed on the Bio-Rad CFX96 Real-Time PCR system; see Table 2 and Table 3 for the 20 μL qRT-PCR reaction system and reaction procedures; data analysis was performed in Prism 7 software using the 2^−ΔΔCt process with GAPDH as internal reference for relative quantification of the expression of the target gene.
# The effect of Compound G on the transcription level of the autophagy-related genes and the lysosomal genes was further detected in the induced CLN3^Δex7/8 human neural stem cells and neurons.
smiles,measurement,setting,value
"C/C=C1\C(=O)C[C@H]2[C@@H]3CCC4=CC(=O)CC[C@]4(C)[C@H]3CC[C@]12C [Compound G, (Z)-guggulsterone]","expression levels of NQO1, LPCAT1 and HLA-E",[1],all increased
same,gene expression profile (PCA analysis),[1],did not produce a significant impact
same,number of differential genes (fold change >2 and corrected p<0.05),[1],3
same,differential expression folds of NRF2 downstream genes other than NQO1,[1]; RNA sequencing,less than 2
same,expressions of multiple NRF2 downstream genes,[1]; RNA sequencing,elevated
same,transcription level of TFEB and most autophagy-related genes and lysosomal genes,[1]; RNA sequencing,no significant effects
same,expression of the autophagy-related genes or the lysosomal genes overall,[2],did not significantly increase
